{
  "source": "patent US20040191842A1",
  "about": "“Chemopreventive and therapeutic aspects of polyphenolic compositions and assays” (Medical College of Georgia Research Institute, Inc., priority 2002, published 2004)",
  "key": {"p57 (KIP2)": {"tested_on": "p57 (KIP2)", "experiment": "Western blot of p57 in OSC2 oral carcinoma cells", "assay_type": "cell-based, human", "method": "Cell treatments. For 24 hours treatments, exponentially growing cells with 40% confluency (to minimize differentiation and spontaneous apoptosis) were either maintained in 50 μM EGCG (2.29 mg/100 ml) or 0.2 mg/ml of GTPPs in tissue culture flasks (25 cm^2). Control flasks contained cells without any treatment. To test whether BaP or NNK interfere with the induction of p57, the human keratinocytes were treated with 0.12 μM BaP, or 10 μM NNK, either alone or in combination with 50 μM EGCG. To examine the time course of p57 induction, cells were treated with 50 μM EGCG and harvested for Western analysis at 30 minutes, 2 hours, 6 hours, and 24 hours. The human keratinocytes were treated when the cell density reached 85-90% confluency (to mimic the epithelium).\nIn a parallel series of experiments, treatment with EGCG was performed with 30 micrograms per milliliter (μg/ml) cycloheximide added to the keratinocyte media 30 minutes prior to the addition of EGCG. The dose-response experiments were performed using EGCG concentrations at 30, 50 100, and 200 μM in the culture media for 24 hours.\nWestern blot analysis. […] The concentration of protein in each sample was determined using the BioRad DC Protein Assay and spectrophotometry. […]"}, "OSC-4 cells [1]": {"tested_on": "OSC-4 cells", "experiment": "MTT assay (SDH activity), OSC-4 cells", "assay_type": "cell-based, human", "conditions": "24 hours", "protocol": "MTT [3-(4,5-dimethylthiazol-2-yl)-2,5-diphenyl tetrazolium bromide] assay. This method directly detects the activity of mitochondrial succinate dehydrogenase (SDH). Changes in SDH activity is a measurement of cell viability when stress is introduced in cell culture through chemical or physical means. Cells (1.5×10^4 cells/well) were seeded in a 96-well microplate and treated with the indicated doses of EGCG for 24 hours. After the treatment, the cells in each well were washed with 200 μl of phosphate-buffered saline (PBS), incubated with 100 μl of 2% MTT in a solution of 0.05 M Tris, 0.5 mM MgCl2, 2.5 mM CoCl2, and 0.25 M disodiumn succinate as substrate (Sigma) at 37° C. for 30 minutes. Cells were fixed in situ by the addition of 100 μl of 4% formalin in 0.2 M Tris (pH 7.7), and after a 5 minute incubation at room temperature liquid was removed and the wells were allowed to dry. Each well was rinsed with 200 μl water and cells were solubilized by the addition of 100 μl of 6.35% 0.1 N NaOH in DMSO. The colored formazan product was measured by a Thermo MAX micro plate reader (Molecular Devices Corp., Sunnyvale, Calif.) at a wavelength of 562 nm. Experiments were repeated three times with triplicate samples for each experiment."}, "MCF7 cells": {"tested_on": "MCF7 cells", "experiment": "Morphological analysis, MCF7 cells", "assay_type": "cell-based, human", "conditions": "EGCG, 48 hours, vs 24 hour control", "source_text": "Cell lines and cell culture. The normal human keratinocytes (NHEK CC-2507) were purchased from Cambrex (East Rutherford, N.J.) and maintained in KGM-2 medium (Cambrex). The OSC2 cell line was previously described (Osaki et al., Eur J Cancer B Oral Oncol 1994; 30 B:296-301). The breast carcinoma MCF7 cell line was purchased from American Type Culture Collection. The MCF7(C) caspase+cell line “7-3-28 ” was established and tested as previously described (Janicke et al., J Biol Chem 1998; 273:9357-60, Blanc et al., Cancer Res 2000; 60:4386-90). These tumor cells were maintained in 45% Dulbecco's Modified Eagle's Medium (DMEM), 45% Ham's F12 medium and 10% fetal calf serum, 100 I.U/ml penicillin, 100 μg/ml streptomycin and 5 μg/ml hydrocortisone. All cell cultures were maintained in a 37° C. incubator with 5% CO2. Light microscopic photographs were taken with a SPOT RT digital camera system (Diagnostic Instruments) linked to a Nikon Phase Contrast-2 microscope at an original magnification of 200×."}, "OSC-4 cells [2]": {"tested_on": "OSC-4 cells", "experiment": "Intracellular ROS levels (DFDA assay), OSC-4 cells", "assay_type": "cell-based, human", "conditions": "for intracellular ROS levels vs control: 120 minute time point", "method": "(§1) Measurement of intracellular ROS levels. The ROS assay measures the accumulation of intracellular ROS levels. The non-fluorescent dye DFDA passively diffuses into cells, where the acetates are cleaved by intracellular esterases. […] Thus, values of the fluorescence in the cell cultures are constantly rising in this assay. Cells (1.5×10^4 cells/well) were incubated with Hallam's physiological saline (HPS) containing DFDA (10 μM) in a 96-well microplate for 30 minutes at 37° C. After the incubation, cells were washed three times with HPS and then incubated with HPS containing EGCG (15-200 μM) or diamide (5 mM) for the indicated time periods. The intracellular ROS levels were measured by using a fluorescence plate reader (BIO-TEK FL600, Bio-Tek Instruments, Inc., Winooski, Vt.), at an excitation wavelength of 485 nm and an emission wavelength of 530 nm.\nas §1, with “assay (DFDA assay)” for “assay”, “dye dichlorofluorescein diacetate (DFDA)” for “dye DFDA”, “this assay due to the accumulation of ROS.” for “this assay.”, “EGCG (50-200” for “EGCG (15-200”, “indicated times.” for “indicated time periods.”"}, "[3]": {"tested_on": "normal human primary epidermal keratinocytes", "experiment": "Immunocytochemistry of differentiation markers in keratinocytes", "assay_type": "cell-based", "conditions": "50-100 μM EGCG, 24 hours", "method": "Immunocytochemistry. Normal human keratinocytes were seeded in 8-well chamber slides (Nagle Nunc International, Naperville, Ill.) 12 hours prior to EGCG treatment. At the end of a 24-hour treatment, the slides were washed with PBS and fixed in a cold 4% paraformaldehyde solution for 10 minutes. […] The primary antibodies, rabbit-anti-human p57 polyclonal antibody C-19, rabbit anti-human keratin 1, and filaggrin antibodies were applied for 1 hour at 37° C. at the dilutions recommended by the manufacturers. The streptavidin detection technique (Biogenex, USA) was used with 3-amino-9-ethylcarbazole as chromogen. Negative control sections consisted of tissues treated with 1% diluted normal goat serum instead of primary antibody. Mayer's hematoxylin was used as a counter-stain."}, "[4]": {"tested_on": "aged normal human primary epidermal keratinocytes", "experiment": "MTT assay (SDH activity), aged keratinocytes", "assay_type": "cell-based", "method": "Culturing normal human epithelial cells. The pooled normal human primary epidermal keratinocytes were purchased from Cambrex (Baltimore, Md.) and sub-cultured in the specific growth media provided by the manufacturer (KGM-2). […] Exponentially growing keratinocytes were treated and harvested in their early passages (2-3 passages)."}},
  "data": [
    {"smiles": "O=C(O[C@@H]1Cc2c(O)cc(O)cc2O[C@@H]1c1cc(O)c(O)c(O)c1)c1cc(O)c(O)c(O)c1", "note": "[EGCG, (−)-epigallocatechin-3-gallate]", "values": [
      {"measurement": "p57 levels", "setting": "p57 (KIP2); 50 μM EGCG or 0.2 mg/ml GTPPs, 24 h", "result": "remained unchanged"},
      {"measurement": "p57 expression, time course and dose response", "setting": "p57 (KIP2); EGCG at any time point or concentration", "result": "failed to elevate p57 expression"},
      {"measurement": "mitochondrial SDH activity", "setting": "OSC-4 cells [1]; 50 μM EGCG", "result": "did not show significant changes"},
      {"measurement": "SDH activity, of untreated control", "setting": "OSC-4 cells [1]; 200 μM EGCG", "result": "less than 75%"},
      {"measurement": "mitochondrial SDH activity", "setting": "OSC-4 cells [1]; 200 μM EGCG", "result": "significantly reduced SDH activity and DNA synthesis"},
      {"measurement": "cell density", "setting": "MCF7 cells", "result": "increased cell density was observed"},
      {"measurement": "intracellular ROS levels vs controls", "setting": "OSC-4 cells [2]; 50 μM EGCG, 60 minute exposure", "result": "remained comparable to the controls"},
      {"measurement": "intracellular ROS levels vs control", "setting": "OSC-4 cells [2]; 50 μM EGCG", "result": "ROS levels identical to the control cells"},
      {"measurement": "intracellular ROS levels vs control", "setting": "OSC-4 cells [2]; 200 μM EGCG", "result": "remained higher than the control cells"},
      {"measurement": "time at which rate of ROS production peaked", "setting": "OSC-4 cells [2]; EGCG", "result": 60, "unit": "min"},
      {"measurement": "H2O2 concentration producing ROS equivalent to 200 μM EGCG", "setting": "OSC-4 cells [2]; first hour", "result": 100, "unit": "µM"},
      {"measurement": "differentiation (p57/KIP2, keratin 1, filaggrin)", "setting": "[3]", "result": "underwent differentiation in 24 hours"},
      {"measurement": "SDH activity and BrdU incorporation", "setting": "[4]; EGCG concentrations higher than 100 μM", "result": "consistently induced both SDH activity and BrdU incorporation"},
      {"measurement": "activation of succinate dehydrogenase (SDH), MTT assay", "setting": "[4]; keratinocytes 25 days in culture, 24 h treatment", "result": "up to 37 fold"}
    ]}
  ]
}
